Results reported in ChEMBL document CHEMBL1201862, “PubChem BioAssay data set” (2004).
Calls of active or inactive are those of the source.

What was measured:
[1] = molecular target: Serine/threonine-protein phosphatase PP1-alpha catalytic subunit (Homo sapiens, UniProt P62136); experiment: PP1 phosphatase inhibitors, dose response, biochemical, fluorescence (AID 2403);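 note: phosphatase turnover of OMFP into fluorescent 3-O-methylfluorescein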
[2] = C. albicans growth with fluconazole, confirmation, fluorescence, retest (AID 2467); assay type: functional, cell-based
[3] = molecular target: Serine/threonine-protein phosphatase (Homo sapiens, UniProt Q9BPW0); experiment: Counterscreen for inhibitors of PP1: fluorescence-based biochemical high throughput dose response assay to identify inhibitors of Protein Phosphatase 5 (PP5). [Related pubchem assays: 2034 (Summary (PP5 inhibitors)), 1987 (PP5 inhibitors in singlate), 2235 (PP1 inhibitors in singlate)]
Sequence of Serine/threonine-protein phosphatase (Q9BPW0 whole entry): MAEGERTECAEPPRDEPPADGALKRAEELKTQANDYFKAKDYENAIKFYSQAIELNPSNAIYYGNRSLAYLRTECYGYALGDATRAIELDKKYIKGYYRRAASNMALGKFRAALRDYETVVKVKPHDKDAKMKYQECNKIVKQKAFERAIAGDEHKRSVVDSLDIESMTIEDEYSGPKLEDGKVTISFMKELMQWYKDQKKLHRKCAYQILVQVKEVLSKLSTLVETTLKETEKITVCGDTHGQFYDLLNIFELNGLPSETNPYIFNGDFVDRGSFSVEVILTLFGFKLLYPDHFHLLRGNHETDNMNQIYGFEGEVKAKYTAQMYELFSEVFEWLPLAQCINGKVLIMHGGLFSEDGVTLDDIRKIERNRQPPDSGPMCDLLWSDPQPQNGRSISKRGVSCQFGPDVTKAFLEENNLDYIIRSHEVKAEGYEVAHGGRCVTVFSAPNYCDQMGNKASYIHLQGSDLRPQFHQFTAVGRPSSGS

[4] = NIH-3T3 fibroblast cytotoxicity, dose response, cytotoxicity control, cell-based, fluorescence, Alamar Blue, secondary assay (AID 2327); assay type: functional;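 note: NIH-3T3 mouse fibroblasts cultured with fluconazole at 8 µg/mL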
[5] = molecular target: T1, Insulin-degrading enzyme (Homo sapiens, UniProt P14735); experiment: Dose Response: Fluorescence polarization-based cell-based high throughput dose response assay for inhibitors of insulin-degrading enzyme (IDE). [Related pubchem assays: 434962 (Primary screen (IDE inhibitors in singlicate)), 449730 (Counterscreen (Cytotoxicity in triplicate)), 435028 (Confirmation (IDE inhibitors in triplicate)), 434984 (Summary …; assay type: functional
T1 sequence (P14735 whole entry): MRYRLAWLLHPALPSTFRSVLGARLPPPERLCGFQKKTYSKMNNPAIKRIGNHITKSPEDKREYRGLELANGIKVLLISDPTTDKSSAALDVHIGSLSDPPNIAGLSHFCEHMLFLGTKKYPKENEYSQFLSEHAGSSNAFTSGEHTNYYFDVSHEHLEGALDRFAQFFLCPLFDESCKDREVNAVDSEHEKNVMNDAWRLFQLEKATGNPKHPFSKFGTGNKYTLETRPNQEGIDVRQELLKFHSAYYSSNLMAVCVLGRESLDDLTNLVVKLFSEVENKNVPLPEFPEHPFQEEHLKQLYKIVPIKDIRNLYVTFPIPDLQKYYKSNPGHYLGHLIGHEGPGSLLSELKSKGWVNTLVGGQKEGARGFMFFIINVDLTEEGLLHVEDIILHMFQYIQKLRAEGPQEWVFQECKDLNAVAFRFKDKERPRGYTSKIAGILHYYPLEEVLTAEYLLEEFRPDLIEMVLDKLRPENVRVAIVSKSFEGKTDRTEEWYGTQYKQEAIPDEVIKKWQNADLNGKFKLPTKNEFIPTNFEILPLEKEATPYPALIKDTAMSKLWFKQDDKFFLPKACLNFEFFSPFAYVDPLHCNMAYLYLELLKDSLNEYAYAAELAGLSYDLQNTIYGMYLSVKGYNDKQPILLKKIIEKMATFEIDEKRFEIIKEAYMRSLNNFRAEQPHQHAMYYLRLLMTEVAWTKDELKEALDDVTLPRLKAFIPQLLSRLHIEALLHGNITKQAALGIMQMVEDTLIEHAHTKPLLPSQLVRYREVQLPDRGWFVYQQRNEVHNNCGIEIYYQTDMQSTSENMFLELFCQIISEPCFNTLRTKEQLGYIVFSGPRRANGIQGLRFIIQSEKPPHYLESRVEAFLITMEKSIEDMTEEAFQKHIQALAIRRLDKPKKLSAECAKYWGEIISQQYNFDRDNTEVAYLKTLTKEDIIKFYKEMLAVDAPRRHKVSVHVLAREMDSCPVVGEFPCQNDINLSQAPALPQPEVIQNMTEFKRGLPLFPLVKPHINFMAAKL

[6] = Counterscreen for IDE inhibitors: Luminescence-based cell-based high throughput dose response assay to identify compounds that are cytotoxic to HEK cells. [Related pubchem assays: 434962 (Primary screen (IDE inhibitors in singlicate)), 449730 (Counterscreen (Cytotoxicity in triplicate)), 435028 (Confirmation (IDE inhibitors in triplicate)) …; assay type: functional; conditions: HEK293
[7] = molecular target: T2, Alkaline phosphatase, tissue-nonspecific isozyme (Homo sapiens, UniProt P05186)
T2 sequence (P05186 whole entry): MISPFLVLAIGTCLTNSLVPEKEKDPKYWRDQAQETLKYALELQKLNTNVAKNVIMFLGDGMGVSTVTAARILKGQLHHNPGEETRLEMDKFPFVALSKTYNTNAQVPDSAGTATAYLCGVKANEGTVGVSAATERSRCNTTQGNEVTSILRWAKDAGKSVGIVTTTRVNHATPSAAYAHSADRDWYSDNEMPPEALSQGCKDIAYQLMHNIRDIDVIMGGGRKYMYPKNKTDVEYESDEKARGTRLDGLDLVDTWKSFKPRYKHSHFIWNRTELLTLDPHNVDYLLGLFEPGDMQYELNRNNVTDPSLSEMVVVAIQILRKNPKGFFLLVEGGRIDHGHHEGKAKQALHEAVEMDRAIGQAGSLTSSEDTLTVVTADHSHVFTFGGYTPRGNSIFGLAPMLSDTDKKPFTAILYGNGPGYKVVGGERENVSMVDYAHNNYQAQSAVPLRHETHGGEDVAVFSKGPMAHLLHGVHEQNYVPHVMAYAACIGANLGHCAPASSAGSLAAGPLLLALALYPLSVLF

[8] = molecular target: T3, DNA repair protein RAD52 homolog (Homo sapiens, UniProt P43351); assay type: functional, biochemical
T3 sequence (P43351 whole entry): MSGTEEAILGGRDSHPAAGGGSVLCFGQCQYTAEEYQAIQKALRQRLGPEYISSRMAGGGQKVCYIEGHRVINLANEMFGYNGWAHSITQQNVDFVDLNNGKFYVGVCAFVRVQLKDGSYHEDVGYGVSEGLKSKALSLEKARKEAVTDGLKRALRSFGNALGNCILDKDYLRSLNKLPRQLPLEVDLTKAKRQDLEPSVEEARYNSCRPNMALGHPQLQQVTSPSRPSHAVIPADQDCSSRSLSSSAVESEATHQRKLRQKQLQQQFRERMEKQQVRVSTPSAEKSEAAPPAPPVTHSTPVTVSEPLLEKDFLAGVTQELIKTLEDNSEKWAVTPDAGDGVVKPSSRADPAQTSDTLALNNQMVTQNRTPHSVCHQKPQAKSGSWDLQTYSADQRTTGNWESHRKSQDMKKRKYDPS

[9] = test system: HEK293; experiment: Fluorescence-based counterscreen for potentiators or agonists of NPY-Y1: cell-based high-throughput dose response assay for inhibitors of cyclic nucleotide gated ion channel (CNGC) activity. In this assay, the parental HEK293 cell line transfected with a cyclic-nucleotide gated ion channel (CNGC)-based cAMP sensor is used to measure inhibition of isoproterenol-induced CNGC …; assay type: functional; conditions: Homo sapiens
[10] = molecular target: Neuropeptide Y receptor type 1 (Homo sapiens, UniProt P25929); experiment: Fluorescence-based dose response cell-based high-throughput screening assay for agonists of NPY-Y1. [Related pubchem assays: 1697 (Screening assay (NPY-Y1 agonists).), 1359 (Screening assay (NPY-Y2 potentiators or agonists).), 1304 (Screening assay (NPY-Y1 potentiators or agonists).), 1704 (Screening assay (CNGC inhibitors).), 1791 (Summary AID.)]; assay type: functional
Sequence of Neuropeptide Y receptor type 1 (P25929 whole entry): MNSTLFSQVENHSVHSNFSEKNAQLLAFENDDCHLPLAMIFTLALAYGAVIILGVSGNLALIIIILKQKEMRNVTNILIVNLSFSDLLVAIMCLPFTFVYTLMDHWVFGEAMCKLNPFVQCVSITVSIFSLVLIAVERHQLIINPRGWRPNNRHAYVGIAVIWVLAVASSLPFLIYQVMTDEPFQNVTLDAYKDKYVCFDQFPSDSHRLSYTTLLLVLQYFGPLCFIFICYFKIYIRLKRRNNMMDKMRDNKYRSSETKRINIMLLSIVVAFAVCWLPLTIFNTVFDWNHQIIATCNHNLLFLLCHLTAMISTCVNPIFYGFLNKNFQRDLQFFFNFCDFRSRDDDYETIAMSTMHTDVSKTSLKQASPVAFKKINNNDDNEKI

[11] = molecular target: Neuropeptide Y receptor type 2 (Homo sapiens, UniProt P49146); experiment: Fluorescence-based counterscreen for agonists of NPY-Y1: cell-based high-throughput dose response assay for agonists of NPY-Y2.; assay type: functional
Sequence of Neuropeptide Y receptor type 2 (P49146 whole entry): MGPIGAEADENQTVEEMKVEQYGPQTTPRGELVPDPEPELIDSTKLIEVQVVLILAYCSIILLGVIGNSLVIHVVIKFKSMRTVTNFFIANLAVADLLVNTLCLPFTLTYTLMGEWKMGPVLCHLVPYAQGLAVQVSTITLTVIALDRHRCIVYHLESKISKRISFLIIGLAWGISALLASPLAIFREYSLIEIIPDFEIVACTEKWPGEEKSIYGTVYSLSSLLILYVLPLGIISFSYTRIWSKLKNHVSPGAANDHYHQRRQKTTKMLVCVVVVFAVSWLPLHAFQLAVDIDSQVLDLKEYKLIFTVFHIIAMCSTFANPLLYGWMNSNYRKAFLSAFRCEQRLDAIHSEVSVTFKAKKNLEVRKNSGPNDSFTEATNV

[12] = molecular target: Melanin-concentrating hormone receptor 1 (Homo sapiens, UniProt Q99705); experiment: Fluorescence-based counterscreen for antagonists of the G-protein coupled receptor 7 (GPR7): cell-based high throughput dose response assay to identify antagonists of the melanin-concentrating hormone receptor 1 (MCHR1).; assay type: functional
Sequence of Melanin-concentrating hormone receptor 1 (Q99705 whole entry): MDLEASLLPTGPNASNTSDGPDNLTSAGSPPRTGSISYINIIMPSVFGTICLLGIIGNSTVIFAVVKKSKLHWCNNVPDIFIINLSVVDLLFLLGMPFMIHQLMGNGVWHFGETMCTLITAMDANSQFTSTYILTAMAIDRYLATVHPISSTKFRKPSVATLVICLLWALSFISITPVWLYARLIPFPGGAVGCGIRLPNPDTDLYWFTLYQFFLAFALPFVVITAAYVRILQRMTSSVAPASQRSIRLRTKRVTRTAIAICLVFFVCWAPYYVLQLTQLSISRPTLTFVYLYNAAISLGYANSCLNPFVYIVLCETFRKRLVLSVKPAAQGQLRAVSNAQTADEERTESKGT

[13] = A Cell Based Secondary Assay To Explore Cytotoxicity of Compounds that Sensitize Mycobacterium Tuberculosis to Beta-Lactam Antibiotics.; assay type: functional

Sequence of Serine/threonine-protein phosphatase PP1-alpha catalytic subunit (P62136 whole entry): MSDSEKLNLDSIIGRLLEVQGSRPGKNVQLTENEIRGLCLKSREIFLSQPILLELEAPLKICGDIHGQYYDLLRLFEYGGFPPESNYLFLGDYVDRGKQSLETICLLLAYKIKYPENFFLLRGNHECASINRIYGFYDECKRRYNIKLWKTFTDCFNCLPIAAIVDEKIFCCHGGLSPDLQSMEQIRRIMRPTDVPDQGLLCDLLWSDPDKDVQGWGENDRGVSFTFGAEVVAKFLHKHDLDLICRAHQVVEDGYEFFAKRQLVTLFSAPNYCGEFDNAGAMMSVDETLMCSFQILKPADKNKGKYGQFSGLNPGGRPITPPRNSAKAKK

## COc1cnc(-c2ccccn2)nc1Sc1cccc(Cl)c1
[1]
  IC50: 4.75 µM (active)
[2]
  EC50: > 38 µM (not active)
[3]
  IC50: > 67 µM (not active)
[4]
  EC50: > 160 µM (inactive)

## CCCCCN(C(=O)CCC(=O)OCC(=O)c1ccc(CCC)cc1)c1c(N)n(CCCC)c(=O)[nH]c1=O
[5]
  IC50: 10.6 µM (not active)
[6]
  IC50: 39.1 µM (not active)

## CN(C)CCCN(C(=O)c1ccco1)c1nc2ccc(Br)cc2s1
[7]
  EC50: > 100 µM (not active)
[8]
  AC50: 14.1 µM (active)

## COc1ccc(Nc2oc(/C=C3/SC(=S)N(CC4CCCO4)C3=O)nc2C#N)cc1 (stereo not drawn)
[9]
  IC50: 11.8 µM (not active)
[10]
  EC50: 13.5 µM (not active)
[11]
  EC50: 12.8 µM (not active)

## CCC(C)CCN1C(Nc2ccccc2)=NC[C@@H]1Cc1ccccc1 (stereo partly drawn)
[12]
  IC50: 12.5 µM (not active)

## O=S(=O)(Nc1cccc(-c2ccc(N3CCCCCC3)nn2)c1)c1ccccc1Cl
[13]
  CC50: > 40 µM (active)
